Measured values: article PMC3547949, “The Immunosuppressive Agent Mizoribine Monophosphate Is an Inhibitor of the Human RNA Capping Enzyme” (PLoS ONE, 2013)
Where two headings read alike, the source gives them in different places.

Columns and labels:
[1] = biological target: T1, human RNA capping enzyme (HCE) (Homo sapiens, UniProt O60942); test: Complete RNA capping reaction (RTase+GTase) of a 5′-triphosphate RNA; assay type: biochemical
T1 construct: full-length bifunctional HCE protein (amino acid 1–597); 6-His (N); made in house; host or cells: Escherichia coli BL21(DE3), pET28a
T1 sequence (O60942 whole entry): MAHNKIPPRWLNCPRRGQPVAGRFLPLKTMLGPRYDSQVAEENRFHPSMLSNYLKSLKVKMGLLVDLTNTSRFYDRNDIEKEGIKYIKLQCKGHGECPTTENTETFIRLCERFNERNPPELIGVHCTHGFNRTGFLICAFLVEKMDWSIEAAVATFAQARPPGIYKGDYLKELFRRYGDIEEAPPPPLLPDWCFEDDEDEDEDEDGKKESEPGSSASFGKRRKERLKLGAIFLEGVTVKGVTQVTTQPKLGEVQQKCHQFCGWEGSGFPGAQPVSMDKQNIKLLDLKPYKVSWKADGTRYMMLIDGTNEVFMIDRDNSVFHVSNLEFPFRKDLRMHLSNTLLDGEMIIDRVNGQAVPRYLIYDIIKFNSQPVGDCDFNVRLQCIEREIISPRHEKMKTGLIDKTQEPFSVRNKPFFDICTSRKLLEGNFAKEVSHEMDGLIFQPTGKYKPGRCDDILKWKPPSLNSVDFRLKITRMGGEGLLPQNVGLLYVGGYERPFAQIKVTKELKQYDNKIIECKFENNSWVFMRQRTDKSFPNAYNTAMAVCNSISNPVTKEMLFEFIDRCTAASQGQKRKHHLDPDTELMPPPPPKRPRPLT
Method: Reaction mixtures containing 5 µM [α-^32P]GTP, 5 µM of 5′-triphosphate RNA, 0.1 µM HCE, 50 mM Tris-HCl, pH 7.5, 5 mM MgCl2, 500 µM DTT, 0.5 ng/µl pyrophosphatase (Roche), and 1 U of RNAse Out (Invitrogen) were incubated for 15 min at 37°C. Reactions were stopped by the addition of 20 µl of phenol-chloroform. 10 µl of loading dye (97% formamide) was added to the aqueous phase and submitted to electrophoresis on a denaturing 10% polyacrylamide gel. Formation of the ^32P-radiolabeled GpppRNA was quantified with a PhosphorImager.
In order to investigate if MZP could inhibit the RNA capping reaction, we initially addressed its impact on the complete RNA capping reaction (RTase+GTase). A cold 5′-triphosphate RNA was incubated in the presence of HCE, [α-^32P]GTP, magnesium and increasing concentrations of MZP. […] To ensure that the inhibition by MZP was specific, the reaction was performed in the presence of increasing concentrations of GMP which is chemically related to MZP.

[2] = tested on: HEK 293T cells; test: Inhibition of mRNA cap formation in cells (firefly luciferase reporter); details: 40 µM or 120 µM mizoribine, all cell lines, versus untreated cells
[3] = design: method as in PMID 19336917, PMID 15773958, PMID 11896891, PMID 12036371; details: cited from earlier work
[4] = biological target: T2, HCE (Homo sapiens, UniProt O60942); test: MZP transfer onto an acceptor RNA (cap donor substrate test); assay type: biochemical; details: 2 mM MZP, 2 h 37°C
T2 construct: full-length bifunctional HCE protein (amino acid 1–597); 6-His (N); made in house; host or cells: Escherichia coli BL21(DE3), pET28a
T2 sequence (O60942 whole entry): as above
Method: Reaction mixtures containing 50 mM Tris-HCl, pH 7.5, 5 mM MgCl2, 500 µM DTT, 0.7 ng/µl pyrophosphatase (Roche), and 1 U of RNAse Out (Invitrogen), 1 µM of 5′-diphosphate RNA substrate (32 nt) harboring a α-^32P-radiolabeled 5′-phosphate, 0.2 µM HCE were incubated in absence or in presence of 2 mM GTP or MZP for 2 h at 37°C. The reaction pH was adjusted to 5.2 with 50 mM NaOAc followed by the addition of 5 µg of Nuclease P1 and incubation at 37°C for 60 min. The digestion were further adjusted with 50 mM Tris-HCl to pH 8.0, and digested with 1 U of alkalie phosphatase (Roche) for 30 min at 37°C. The reaction products were analyzed by thin-layer chromatography (TLC) on a polyethyleneimine-cellulose plate developed with 0.4 M ammonium sulfate.
Supplementary file pone.0054621.s002.tif: Figure S2 MZP as a potential cap donor substrate for HCE. A 5′-diphosphate acceptor RNA initiating with a [α-^32P] guanosine was incubated in absence (lane 1) or in presence of MZP (lane 2) or GTP (lane 3) and HCE. The capping reaction was sequentially submitted to nuclease P1 then alkaline phosphatase prior to analysis by TLC on a polyethyleneimine-cellulose plate. An autoradiogram of the plate is shown. The locations of the origin and GpppG product are indicated by arrows (right). (TIF) Click here for additional data file.

[5] = biological target: T3, A103R (Paramecium bursaria Chlorella virus 1, UniProt Q84424); assay type: biochemical, Chlorella virus (PBCV-1)
T3 sequence (Q84424 whole entry, stated change not applied): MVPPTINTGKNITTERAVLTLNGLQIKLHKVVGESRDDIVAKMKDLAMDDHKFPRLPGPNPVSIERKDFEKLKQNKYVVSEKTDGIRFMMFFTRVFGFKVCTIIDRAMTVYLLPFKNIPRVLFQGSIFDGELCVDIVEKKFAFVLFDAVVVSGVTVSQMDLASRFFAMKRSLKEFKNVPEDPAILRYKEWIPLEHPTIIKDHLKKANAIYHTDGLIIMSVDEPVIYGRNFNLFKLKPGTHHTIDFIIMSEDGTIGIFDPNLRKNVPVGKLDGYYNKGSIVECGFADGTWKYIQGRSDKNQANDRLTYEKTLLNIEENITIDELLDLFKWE

[6] = biological target: T3, A103R; assay type: biochemical, Chlorella virus (PBCV-1); remark: listed apart in the source
[7] = biological target: T4, Ceg1 (Saccharomyces cerevisiae, UniProt Q01159); test: Enzyme-GMP (EpG) complex formation, yeast GTase; assay type: biochemical; details: GTase first step, compared with other GTases
T4 sequence (Q01159 1-459): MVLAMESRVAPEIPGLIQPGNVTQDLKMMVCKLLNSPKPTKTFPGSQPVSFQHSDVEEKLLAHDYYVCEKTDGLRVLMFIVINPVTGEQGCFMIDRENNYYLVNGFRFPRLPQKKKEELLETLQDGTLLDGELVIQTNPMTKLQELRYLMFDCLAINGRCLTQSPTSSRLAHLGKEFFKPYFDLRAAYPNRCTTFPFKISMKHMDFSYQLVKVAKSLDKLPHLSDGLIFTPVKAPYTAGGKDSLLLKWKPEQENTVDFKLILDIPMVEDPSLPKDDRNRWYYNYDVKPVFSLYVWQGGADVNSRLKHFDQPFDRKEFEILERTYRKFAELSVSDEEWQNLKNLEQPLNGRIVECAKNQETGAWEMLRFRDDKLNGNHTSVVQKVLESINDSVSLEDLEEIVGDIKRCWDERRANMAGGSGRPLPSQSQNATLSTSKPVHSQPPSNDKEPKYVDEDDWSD

[8] = biological target: T5, HCE RTase activity (Homo sapiens, UniProt O60942); test: RNA triphosphatase (RTase) assay; assay type: biochemical; details: MZP up to 10 mM, full-length HCE
T5 construct: full-length bifunctional HCE protein (amino acid 1–597); 6-His (N); made in house; host or cells: Escherichia coli BL21(DE3), pET28a
T5 sequence (O60942 whole entry): as the sequence (O60942 whole entry) above
Method: Reaction mixtures containing 50 mM Tris-HCl, pH 7.5, 5 mM MgCl2, 500 µM DTT, 3 µM of γ-^32P-radiolabeled 5′-triphosphate RNA substrate (32 nt), 0.1 µM HCE, and various concentration of MZP (as indicated) were incubated for 10 min at 37°C. The reactions were stopped by the addition of 2 µl of 5 M formic acid. Aliquots of each sample were analyzed on polyethyleneimine-cellulose thin-layer chromatography (TLC) plate, and developed with 0.5 M LiCl and 1 M formic acid. The release of ^32Pi was quantified by scanning the TLC plates with a PhosphorImager.
We next investigated the susceptibility of the RTase domain of HCE to MZP inhibition. To specifically monitor the effect of MZP on the RTase activity, a γ-^32P-radiolabeled 5′-triphosphate RNA was incubated with HCE and magnesium. RTase activity was monitored through the analysis of the ^32Pi product released from the radiolabeled RNA by TLC and autoradiography.

[9] = tested on: HCE GTase activity; test: Complete two-step RNA guanylyltransferase (GTase) reaction on 5′-diphosphate RNA; assay type: biochemical, human; details: complete GTase reaction; HCE vs D1R, A103R, Ceg1
[10] = biological target: T6, HCE GTase activity (Homo sapiens, UniProt O60942); test: as above; assay type: biochemical
T6 construct: full-length bifunctional HCE protein (amino acid 1–597); 6-His (N); made in house; host or cells: Escherichia coli BL21(DE3), pET28a
T6 sequence (O60942 whole entry): as above

[11] = biological target: T4, Ceg1; test: Complete GTase reaction, yeast GTase; assay type: biochemical; details: 0,5 µM Ceg1
[12] = tested on: HCE-G229–597 (GTase domain of HCE); test: Complete GTase reaction with isolated GTase domain; assay type: biochemical, human
[13] = biological target: T2, HCE; test: Enzyme-GMP (EpG) complex formation, first GTase step; assay type: biochemical
Method: The enzyme-GMP complex formation assays were carried out for 3 min at 37°C in a buffer containing 1 µM [α-^32P]GTP, 4 µM HCE, 50 mM Tris-HCl, pH 7.5, 5 mM MgCl2, 500 µM DTT, 0.5 ng/µl pyrophosphatase (Roche), and various concentration of MZP (as indicated). The reactions were stopped by the addition of 5 µl of loading dye (50 mM EDTA, 2% β-mercaptoethanol, 1% SDS) and analyzed on a 12% polyacrylamide gel containing 0.1% SDS. The formation of the radiolabeled HCE-[α-^32P]GMP covalent complex was quantified with a PhosphorImager. Similar experiments were conducted using only the GTase domain of HCE (HCE-G229–597). Alternatively, equimolar concentrations of MgCl2 to MZP were added to the reaction in addition to the base 5 mM MgCl2 from the buffer (MZP✯Mg^2+).
We next set out to identify which step (if any) of the GTase reaction is more susceptible to MZP inhibition. In order to investigate the inhibitory potency of MZP on HCE-GMP complex formation (first step), HCE was incubated with [α-^32P]GTP, magnesium and increasing concentrations MZP. […] The formation of the EpG covalent complex in single turnover condition was analyzed by SDS-PAGE and quantified by phosphorimaging. […] Nevertheless, MZP inhibition of the EpG complex formation is weak and could not be solely responsible for the global inhibitory potency of MZP.

[14] = biological target: T7, D1R (Vaccinia virus, UniProt P04298); test: Complete GTase reaction, vaccinia virus GTase; assay type: biochemical
[15] = biological target: T7, D1R; test: Enzyme-GMP (EpG) complex formation, vaccinia virus GTase; assay type: biochemical
[16] = biological target: T2, HCE; test: GMP transfer on a 5′-diphosphate RNA, second GTase step; assay type: biochemical; details: single turnover
Method: Formation of the enzyme-GMP complex was initially performed for 15 min at 37°C in a buffer containing 1.5 µM [α-^32P]GTP, 1 µM HCE, 70 mM Tris-HCl, pH 7.5, 7.5 mM MgCl2, 70 µM DTT, 0.7 ng/µl pyrophosphatase (Roche), and 1 U of RNAse Out (Invitrogen). The transfer reaction was then initiated by adding a 5′-diphosphate RNA (32 nt) to a final concentration of 0.5 µM with various concentration of MZP (as indicated). After 30 sec at 37°C, the transfer reaction was stopped by the addition of 20 µl of phenol-chloroform. 10 µl of loading dye (97% formamide) was added to the aqueous phase and submitted to electrophoresis on a denaturing 10% polyacrylamide gel. The formation of the ^32P-radiolabeled GpppRNA was quantified with a PhosphorImager.
We next investigated if the second step of the GTase reaction could be impaired by MZP. EpG complex formation was allowed to initially form upon incubation of HCE with excess [α-^32P]GTP, magnesium and pyrophosphatase. Next, various concentrations of MZP and a cold 5′-diphosphate RNA were added to initiate the transfer of the [α-^32P]GMP moiety onto the RNA in single turnover condition.

## Nc1nc2c(ncn2[C@@H]2O[C@H](COP(=O)(O)O)[C@@H](O)[C@H]2O)c(=O)[nH]1 [GMP]
[1]; GMP concentrations as high as 10 mM
  reduction of RNA capping: ≤ 25%

## NC(=O)c1ncn([C@@H]2O[C@H](CO)[C@@H](O)[C@H]2O)c1O [mizoribine]
[2]
  effect on reporter protein expression: global reduction in protein expression
[3]
  binding to serum proteins: 2.3%

## NC(=O)c1ncn([C@@H]2O[C@H](COP(=O)(O)O)[C@@H](O)[C@H]2O)c1O [MZP, Mizoribine monophosphate]
[1]; 0.1 µM HCE, 5 µM GTP, 5 µM 5′-triphosphate RNA, 5 mM MgCl2, 15 min 37°C
  IC50: 150 µM
[4]
  use as substrate and transfer onto acceptor RNA: not able to use the MZP as a substrate
[5]
  IC50: 2000 µM
[6]
  IC50: 750 µM
[7]
  inhibition of EpG formation: slightly less affected
[8]
  effect on RTase activity: does not affect
[9]
  difference in susceptibility, HCE versus other GTases: 5-to 25 fold
[10]; Lineweaver-Burk, Km for GTP independent of MZP concentration
  mechanism of inhibition, complete GTase reaction: non-competitive
[10]; steady-state, 5′-diphosphate RNA, full-length HCE
  IC50: 80 µM
[11]
  IC50: > 2000 µM
[12]
  decrease in potency versus full-length HCE: 10 fold
[13]; Lineweaver-Burk, maximal velocity unaffected by MZP
  mechanism of inhibition, EpG formation: competitive
[13]; single turnover, 4 µM HCE, 1 µM GTP, 3 min 37°C
  IC50: 3000 µM
[14]
  IC50: 500 µM
[15]
  IC50: 3000 µM
[16]
  impact on GMP transfer to acceptor RNA (second GTase step): only has a minor impact
